Assay results reported in patent publication US8399515B2, “Five and fifteen carbon fatty acids for treating metabolic disorders and as nutritional supplements” (Baylor Research Institute, priority 2003, dated 2013).
Where “and” joins values, the source holds several entries; their conditions need not be identical. Identical values can stand only once.

How the values were obtained:
[1] = tested on: fibroblasts from patients with Very-long-chain acyl-CoA dehydrogenase (VLCAD) deficiency, severe cardiac form; assay: Propionylcarnitine from oxidation of odd-carbon fatty acids in VLCAD (cardiac) fibroblasts; format: cell-based, human
Procedure: (§1) Fibroblasts obtained from patients with inherited defects of mitochondrial fat oxidation were cultured in the presence of omega deuterated odd-carbon numbered fatty acids, as described in Roe, C. R., Sweetman, L., Roe, D. S., David, F., Brunengraber, H., “Effective Dietary Treatment of Cardiomyopathy & Rhabdomyolysis in Long-Chain Fat Oxidation Disorders using an Anaplerotic Odd-Chain Triglyceride,” J. Clin. Invest. 110 (2): 259-269 (2002).
(§2) The data in Table 1 represents testing of cultured fibroblasts derived from ten patients afflicted with Very-long-chain acyl-CoA dehydrogenase (VLCAD) deficiency (six patients with the severe cardiac form and four with the non-cardiac milder phenotype), two patients with Mitochondrial Trifunctional Protein (MTP) deficiency, five patients having L-3-hydroxy-acyl-CoA dehydrogenase (LCHAD) deficiency and three patients with Short-chain acyl-CoA dehydrogenase (SCAD) deficiency.

[2] = tested on: fibroblasts from patients with VLCAD deficiency, non-cardiac milder phenotype; assay: Propionylcarnitine from oxidation of odd-carbon fatty acids in VLCAD (non-cardiac) fibroblasts; format: cell-based, human
Procedure: as §1, §2

[3] = tested on: fibroblasts from patients with Mitochondrial Trifunctional Protein (MTP) deficiency; assay: Propionylcarnitine from oxidation of odd-carbon fatty acids in MTP fibroblasts; format: cell-based, human
Procedure: as §1, §2

[4] = tested on: fibroblasts from patients with L-3-hydroxy-acyl-CoA dehydrogenase (LCHAD) deficiency; assay: Propionylcarnitine from oxidation of odd-carbon fatty acids in LCHAD fibroblasts; format: cell-based, human
Procedure: as §1, §2

[5] = tested on: fibroblasts from patients with Short-chain acyl-CoA dehydrogenase (SCAD) deficiency; assay: Propionylcarnitine from oxidation of odd-carbon fatty acids in SCAD fibroblasts; format: cell-based, human
Procedure: as §1, §2

[6] = tested on: MCAD-deficient fibroblasts; assay: Fate of odd-carbon fatty acids in MCAD-deficient fibroblasts; format: cell-based, human
Procedure: as §1
Fibroblasts from four patients with MCAD deficiency and one heterozygote (carrier) indicate that odd-carbon fatty acids containing more than seven carbons can not be effectively used in that disease. […]

[7] = tested on: control / normal fibroblasts; assay: Fate of odd-carbon fatty acids in control (normal) fibroblasts; format: cell-based, human; conditions: NORMAL fibroblasts
Procedure: Fibroblasts obtained from patients with inherited defects of mitochondrial fat oxidation were cultured in the presence of omega deuterated odd-carbon numbered fatty acids, as described in Roe, C. R., Sweetman, L., Roe, D. S., David, F., Brunengraber, H., “Effective Dietary Treatment of Cardiomyopathy & Rhabdomyolysis in Long-Chain Fat Oxidation Disorders using an Anaplerotic Odd-Chain Triglyceride,” J. Clin. Invest. 110 (2): 259-269 (2002). […]

VLCAD patient = assay: Meal test with triheptanoin or tripentanoin in a VLCAD patient; format: in vivo, human; parameters: Myristenoylcarnitine Level: unit not given here; conditions: for Myristenoylcarnitine Level / Propionylcarnitine Level: blood
Text: (§3) A VLCAD patient and an SCAD patient, both of whom had gastrostomy sites for enteral administration, each were provided with separate meals containing equimolar amounts of triheptanoin (C7) and tripentanoin (C5) at different times on the same day. Each patient was given the amount in 1 of 4 daily meals equivalent to a diet of 3 gms/Kg/day or about 30% of total Kcal as the triglyceride. Serial blood samples were obtained hourly and individual urines were collected at baseline and during the meal.
(§4) The patient with VLCAD (FIG. 3) was monitored over a 3 hour interval and the SCAD patient was monitored for 4 hours after beginning the meal. […] One way the VLCAD patient was monitored was for myristenoylcamitine (cis-5-C14:1), which reflects oxidation of oleate and is therefore an indication of ongoing lipolysis during the meal tests (it is not derived from either C7 or C5). […] These changes are not observed with even-carbon triglycerides.

SCAD patient = assay: Meal test with triheptanoin or tripentanoin in a SCAD patient; format: in vivo, human
Text: as §3, §4
The second patient with SCAD deficiency (FIG. 4) had been receiving the triheptanoin diet for more than 2 years. This disorder is due to an inherited deficiency of butyryl-CoA dehydrogenase (SCAD) and is known to oxidize even carbon fatty acids of 4-6 carbon chain length.
In FIG. 4, C7-C3 represents the blood levels of C3 derived from C7; and C5-C3 represents the blood levels of C3 derived from C5, C7-C5 represents blood levels of pentanoylcarnitine (C5) derived from C7 meals and C5-C5 represents blood levels of pentanoylcarnitine (C5) derived from C5 meals. […] C7-C4 and C5-C4 represent the levels of the disease-specific acylcarnitine (butyrylcarnitine [C4]) observed in SCAD deficiency. […] This increased quantity of C3 corresponds to those observed for SCAD deficiency in the fibroblast studies above shown in Table 1.

[8] = tested on: fibroblasts from patients with inherited defects of mitochondrial fat oxidation; assay: Propionylcarnitine production in all fat-oxidation-defective fibroblast cell lines (comparison in words); format: cell-based, human; conditions: all VLCAD, MTP, LCHAD, SCAD cell lines; C5 versus C7; C15 versus C5 or C7
Procedure: as §1, §2

[9] = VLCAD cardiac fibroblasts, one line per patient
[10] = average over VLCAD cardiac cell lines
[11] = VLCAD non-cardiac fibroblasts, one line per patient
[12] = average over VLCAD non-cardiac cell lines
[13] = MTP fibroblasts, one line per patient
[14] = LCHAD fibroblasts, one line per patient
[15] = SCAD fibroblasts, one line per patient

Q: With `CCCCC(=O)O` [C5, n-pentanoic acid] as the compound, how does the “Ratio: C5/C7 (propionylcarnitine)” value [1, 9] read?
A: 1.6 (2×) and 2.1 and 1.5 and 1.7 and 2.0

Q: And the “Ratio: C5/C15 (propionylcarnitine)” value [1, 9]?
A: 4.0 and 5.2 and 3.1 and 3.5 and 5.3 and 5.1

Q: What about the “Propionylcarnitine from oxidation of fatty acid” value ([1]; VLCAD cardiac fibroblasts, one line per patient, 72 hours incubation) of the same compound?
A: 47.0 nmol/mg Protein/72 hours and 27.2 nmol/mg Protein/72 hours and 67.8 nmol/mg Protein/72 hours and 28.2 nmol/mg Protein/72 hours and 34.7 nmol/mg Protein/72 hours and 50.6 nmol/mg Protein/72 hours

Q: And the “AVG. Ratio: C5/C7” value [1, 10]?
A: AVG. 1.8

Q: And the “AVG. Ratio: C5/C15” value [1, 10]?
A: AVG. 4.4

Q: What about the “Ratio: C5/C7 (propionylcarnitine)” value [2, 11] of the same compound?
A: 2.0 and 1.4 (2×) and 2.1

Q: And the “Ratio: C5/C15 (propionylcarnitine)” value [2, 11]?
A: 2.7 and 1.5 and 1.4 and 1.7

Q: And the “Propionylcarnitine from oxidation of fatty acid” value ([2]; VLCAD non-cardiac fibroblasts, one line per patient, 72 hours incubation)?
A: 44.4 nmol/mg Protein/72 hours and 28.3 nmol/mg Protein/72 hours and 51.8 nmol/mg Protein/72 hours and 19.7 nmol/mg Protein/72 hours

Q: And the “AVG. Ratio: C5/C7” value [2, 12]?
A: AVG. 1.7

Q: And the “AVG. Ratio: C5/C15” value [2, 12]?
A: AVG. 1.8

Q: What about the “Ratio: C5/C7 (propionylcarnitine)” value [3, 13] of the same compound?
A: 1.6 and 1.3

Q: What about the “Ratio: C5/C15 (propionylcarnitine)” value [3, 13] of the same compound?
A: 1.2 and 1.4

Q: And the “Propionylcarnitine from oxidation of fatty acid” value ([3]; MTP fibroblasts, one line per patient, 72 hours incubation)?
A: 38.3 nmol/mg Protein/72 hours and 63.6 nmol/mg Protein/72 hours

Q: And the “AVG. Ratio: C5/C7” value ([3]; average over MTP cell lines)?
A: AVG. 1.5

Q: And the “AVG. Ratio: C5/C15” value ([3]; average over MTP cell lines)?
A: AVG. 1.3

Q: What about the “Ratio: C5/C7 (propionylcarnitine)” value [4, 14] of the same compound?
A: 1.2 and 1.5 (2×) and 2.3 and 1.6

Q: What about the “Ratio: C5/C15 (propionylcarnitine)” value [4, 14] of the same compound?
A: 1.9 and 2.3 and 2.2 and 3.5 and 2.6

Q: What about the “Propionylcarnitine from oxidation of fatty acid” value ([4]; LCHAD fibroblasts, one line per patient, 72 hours incubation) of the same compound?
A: 65.4 nmol/mg Protein/72 hours and 34.5 nmol/mg Protein/72 hours and 35.0 nmol/mg Protein/72 hours and 24.4 nmol/mg Protein/72 hours and 36.8 nmol/mg Protein/72 hours

Q: What about the “AVG. Ratio: C5/C7” value ([4]; average over LCHAD cell lines) of the same compound?
A: AVG. 1.6

Q: What about the “AVG. Ratio: C5/C15” value ([4]; average over LCHAD cell lines) of the same compound?
A: AVG. 2.5

Q: And the “Ratio: C5/C7 (propionylcarnitine)” value [5, 15]?
A: 1.4 (2×) and 1.2

Q: And the “Ratio: C5/C15 (propionylcarnitine)” value [5, 15]?
A: 1.4 (2×) and 1.3

Q: And the “Propionylcarnitine from oxidation of fatty acid” value ([5]; SCAD fibroblasts, one line per patient, 72 hours incubation)?
A: 80.2 nmol/mg Protein/72 hours and 43.6 nmol/mg Protein/72 hours and 48.2 nmol/mg Protein/72 hours

Q: What about the “AVG. Ratio: C5/C7” value ([5]; average over SCAD cell lines) of the same compound?
A: AVG. 1.3

Q: What about the “AVG. Ratio: C5/C15” value ([5]; average over SCAD cell lines) of the same compound?
A: AVG. 1.4

Q: And the “Propionyl-CoA produced in culture (in words)” value ([6]; MCAD 1 and MCAD 2 cell lines, compared with normal)?
A: normal or greater than normal

Q: What about the “Propionylcarnitine from odd carbon precursor” value ([6]; MCAD-1 fibroblast cell line) of the same compound?
A: 25.8 nmol/mg Protein/72 hours

Q: And the “Propionylcarnitine from odd carbon precursor” value ([6]; MCAD-2 fibroblast cell line)?
A: 58.5 nmol/mg Protein/72 hours

Q: What about the “Propionylcarnitine from odd carbon precursor” value [7] of the same compound?
A: 25.8 nmol/mg Protein/72 hours

Q: What about the “Myristenoylcarnitine Level” value (VLCAD patient; time 0 hours, cis-5-C14:1, marker of lipolysis) of the same compound?
A: 3.07

Q: And the “Propionylcarnitine Level” value (VLCAD patient; time 0 hours, enteral meal via gastrostomy)?
A: 1.38

Q: What about the “Myristenoylcarnitine Level” value (VLCAD patient; time 1 hours) of the same compound?
A: 2.89

Q: What about the “Propionylcarnitine Level” value (VLCAD patient; time 1 hours) of the same compound?
A: 3.15

Q: And the “Myristenoylcarnitine Level” value (VLCAD patient; time 2 hours)?
A: 2.04

Q: What about the “Propionylcarnitine Level” value (VLCAD patient; time 2 hours) of the same compound?
A: 3.51

Q: What about the “Myristenoylcarnitine Level” value (VLCAD patient; time 3 hours) of the same compound?
A: 3.39

Q: And the “Propionylcarnitine Level” value (VLCAD patient; time 3 hours)?
A: 5.63

Q: What about the “Clinical or biochemical toxicity” value (VLCAD patient; meal test, 3 hour interval) of the same compound?
A: no clinical or biochemical toxicity

Q: What about the “Amount of C3 produced following the meal, C5 compared with C7” value (SCAD patient) of the same compound?
A: significantly greater

Q: What about the “Limitation in oxidation of the meal triglyceride” value (SCAD patient) of the same compound?
A: no limitation in oxidation

Q: What about the “Change in C4 (butyrylcarnitine) during the meal” value (SCAD patient; C4 already at very low levels) of the same compound?
A: no significant decrease in C4

Q: What about the “Clinical or biochemical toxicity” value (SCAD patient; meal test, 4 hours) of the same compound?
A: no clinical or biochemical toxicity

Q: What about the “Relative Blood Levels of Fatty Acid Chain Lengths: C3” value (shortened to “Relative Blood Levels … C3”) (SCAD patient; time 0 hours) of the same compound?
A: 2.61

Q: And the “Relative Blood Levels of Fatty Acid Chain Lengths: C4 (butyrylcarnitine)” value (from here on “Relative Blood Levels … (butyrylcarnitine)”) (SCAD patient; time 0 hours)?
A: 0.30

Q: What about the “Relative Blood Levels … C3” value (SCAD patient; time 1 hours) of the same compound?
A: 2.78

Q: What about the “Relative Blood Levels … (butyrylcarnitine)” value (SCAD patient; time 1 hours) of the same compound?
A: 0.26

Q: What about the “Relative Blood Levels … C3” value (SCAD patient; time 2 hours) of the same compound?
A: 3.19

Q: And the “Relative Blood Levels … (butyrylcarnitine)” value (SCAD patient; time 2 hours)?
A: 0.27

Q: And the “Relative Blood Levels … C3” value (SCAD patient; time 3 hours)?
A: 3.73

Q: And the “Relative Blood Levels … (butyrylcarnitine)” value (SCAD patient; time 3 hours)?
A: 0.30

Q: What about the “Relative Blood Levels … C3” value (SCAD patient; time 4 hours) of the same compound?
A: 4.99

Q: What about the “Relative Blood Levels … (butyrylcarnitine)” value (SCAD patient; time 4 hours) of the same compound?
A: 0.27

Q: And the “Quantity of propionylcarnitine produced, compared with the other odd-carbon fatty acids” value [8]?
A: consistently greater quantities of propionylcarnitine
